One series can be described thus: Solubility. Format: physicochemical.
The nature of series [1]: Generation of hydroxide ions from mucic acid sodium salt slurry and calcium hydroxide (pH measurement). Type of series: physicochemical. Particulars: 7 g mucic acid + 2.66 g sodium hydroxide slurry. The procedure:
An incremental amount of calcium hydroxide was then added slowly to the slurry of mucic acid sodium salt, and the pH was measured.

A short description of series [2]: Relaxing efficiency (% RE) of hair swatch after treatment, 24 hours at 90% RH. As for the experimental part:
A naturally kinky hair swatch was relaxed using a composition comprising at least one hydroxide composition comprising at least one hydroxide compound and at least one activating composition comprising at least one complexing agent according to the present invention. The relaxed hair swatch was then rinsed, shampooed, and then placed in the humidity chamber at 90% Relative Humidity (% RH) for 24 hours. The percent Relaxing Efficiency (% RE) is defined as:
Lf=length of the relaxed hair after 24 hours at 90% RH
Lt=length of the hair at the straight configuration
This mucic acid sodium salt slurry was mixed with 6 g of a 7% calcium hydroxide cream. The calcium hydroxide cream contained the following ingredients by weight, relative to the total weight of the cream:
The mixture of mucic acid sodium salt slurry and calcium hydroxide cream was applied to naturally kinky hair for 30 minutes. The treated hair was shampooed and then placed in a humidity chamber at 90% RH for 24 hours.

For series [3] the following is noted: for Appearance / pH: 3 g VERSENE 220 in 97 g water. The procedure:
The present invention also provides for a simple screening test, which may be used to determine the applicability of a complexing agent for use as the at least one complexing agent in the lanthionizing compositions of the present invention.
A screening test to determine the applicability of a complexing agent for use in the lanthionizing compositions of the present invention was carried out.

Counter-ions that a name gives are not always drawn. Like-named read-outs stand apart in the source and are kept apart here.

With `O=C(O)[C@@H](O)[C@H](O)[C@H](O)[C@@H](O)C(=O)O` [mucic acid sodium salt], in the series “Solubility” (mucic acid sodium salt mixed with calcium hydroxide), the “observation upon mixing with calcium hydroxide” value is given as “precipitation was observed”. Also, the pH in series [1] (0.0 g calcium hydroxide added) is on record as 12.39; in series [1] (0.2 g calcium hydroxide added) it was 13.02; in series [1] (0.4 g calcium hydroxide added) it was 13.32; in series [1] (0.6 g calcium hydroxide added), 13.46; in series [1] (0.8 g calcium hydroxide added), 13.51; in series [1] (1.0 g calcium hydroxide added) it was 13.53. The pH in series [1] (1.2 g calcium hydroxide added) was found to be 13.55.
For `O=C(O)C(O)C(O)C(O)C(O)C(=O)O` (stereo not shown) [Mucic Acid, 1,2,3,4-tetrahydroxy-1,4-butane dicarboxylic acid], the “solubility in organic solvents” value in the series “Solubility” (most organic solvents, for example alcohols and ethers) is “insoluble”. The “solubility in water (salt form)” value in the series “Solubility” (water at high pH) is reported as “about 0.7%”. Moreover, the “% RE” value in series [2] (curly hair, 6 g 7% calcium hydroxide cream, 1:0.7 molar ratio calcium hydroxide:mucic acid, 2 g water in mucic acid salt slurry) came out at 42%; in series [2] (curly hair, 6 g 7% calcium hydroxide cream, 1:0.7 molar ratio calcium hydroxide:mucic acid, 3 g water in mucic acid salt slurry), 88%; in series [2] (curly hair, 6 g 7% calcium hydroxide cream, 1:0.7 molar ratio calcium hydroxide:mucic acid, 4 g water in mucic acid salt slurry), 95%; in series [2] (curly hair, 6 g 7% calcium hydroxide cream, 1:0.7 molar ratio calcium hydroxide:mucic acid, 5 g water in mucic acid salt slurry) it was 98%; in series [2] (curly hair, 6 g 7% calcium hydroxide cream, 1:0.7 molar ratio calcium hydroxide:mucic acid, 6 g water in mucic acid salt slurry), 99%; in series [2] (naturally kinky hair, 30 minutes, 6 g 7% Ca(OH)2 cream, 0.36 g mucic acid, 0.27 g 50% NaOH, 3 g water, molar ratio calcium hydroxide:mucic acid 1:0.3), 54%. The “% RE” value in series [2] (naturally kinky hair, 30 minutes, 6 g 7% Ca(OH)2 cream, 0.48 g mucic acid, 0.37 g 50% NaOH, 3 g water, molar ratio calcium hydroxide:mucic acid 1:0.4) came to 81%; in series [2] (naturally kinky hair, 30 minutes, 6 g 7% Ca(OH)2 cream, 0.60 g mucic acid, 0.46 g 50% NaOH, 3 g water, molar ratio calcium hydroxide:mucic acid 1:0.5), 80%; in series [2] (naturally kinky hair, 30 minutes, 6 g 7% Ca(OH)2 cream, 0.84 g mucic acid, 0.64 g 50% NaOH, 3 g water, molar ratio calcium hydroxide:mucic acid 1:0.7), 86%; in series [2] (naturally kinky hair, 30 minutes, 6 g 7% Ca(OH)2 cream, 1.19 g mucic acid, 0.9 g 50% NaOH, 3 g water, molar ratio calcium hydroxide:mucic acid 1:1) it was 21%.
Regarding `O=C([O-])CN(CCN(CC(=O)[O-])CC(=O)[O-])CC(=O)[O-].[Na+].[Na+].[Na+].[Na+]` [Na4EDTA, tetrasodium EDTA], in series [3] (3 g VERSENE 220 (0.0066 moles) in 97 g water), the “amount of Ca(OH)2 dissolved in the solution at the end of the reaction” value is listed as 0.60 g. In addition, the Appearance result in series [3] (0 g Ca(OH)2 added) is reported as “Clear”; in series [3] (0.20 g Ca(OH)2 added), “Clear”; in series [3] (0.40 g Ca(OH)2 added), “Clear”; in series [3] (0.60 g Ca(OH)2 added), “Clear”; in series [3] (0.65 g Ca(OH)2 added), “Cloudy”. In addition, the pH in series [3] (0 g Ca(OH)2 added) is given as 11.62; in series [3] (0.20 g Ca(OH)2 added), 13.32; in series [3] (0.40 g Ca(OH)2 added), 13.52; in series [3] (0.60 g Ca(OH)2 added) it was 13.59; in series [3] (0.65 g Ca(OH)2 added), 13.63.

The values are drawn from US6782895B2, “Compositions comprising at least one hydroxide compound and at least one complexing agent, and methods for using the same” (L'Oreal, S.A., priority 2001, dated 2004).
